Read-outs that look alike come from different tables or passages of the source.
Key:
CD8^+ T-cells = conditions: log-fold change, cited from earlier work
[1] = tested on: peripheral mononuclear cells; experiment: ELISPOT of T-cell responses to vaccine peptides after 1st immunization of the breast cancer patient; assay type: in vivo, human; conditions: after the 1st immunization; for ELISpot: 5 days culture of PBMC from the patient
Description: In the prior art, HLA-binding based epitope selection methods have been used for vaccine development. The epitopes in the personal vaccines made for the breast cancer patient were selected to bind at least 3 HLAs of the subject as described in the published US patent application 2018/264094. […] The potency of T-cell responses against the tumor antigens were predicted by the system described above (using HLA class I EWS, HLA class II EWS and overall EWS). The potency of T-cell responses to the vaccine peptides after the 1st immunization were measured with ELISPOT assay after 5 days culture of the peripheral mononuclear cells isolated from a blood sample of the patient (Spots/10^6 PBMC).

[2] = tested on: antigen-specific T-cell clone; conditions: peptide pool, response attributed to the dominant epitope, cited from earlier work
HeLa cells = experiment: Cellular uptake of fluorescent-labeled peptide vaccines, flow cytometry; assay type: cell-based, human; conditions: for cells taking up the vaccine: 40 μM, within 30 minutes; for cellular uptake (intensity of fluorescence) compared to control: flow cytometry, control without R8
Method: (§1) Methods: HeLa cells were seeded at a density of 200,000 cells per well in 6-well plates and allowed to grow for one day. On the second day, the cells were treated with the peptides at three different concentrations (2.5 μM, 10 μM, and 40 μM) for two different incubation times (15 minutes and 30 minutes). After the treatment, the cells were detached using trypsin, washed, and resuspended in PBS. The cells were then analyzed using a FACS Canto flow cytometer. A total of 30,000 events were acquired, and the percentage of fluorescent cells and fluorescent intensity (geometric mean and median) were determined through flow analysis.
as §1, with “Methods” for “Methods:”

[3] = tested on: peritoneal tumour biopsies; experiment: Transcriptome analysis of the Murcia patient's peritoneal tumour biopsies; conditions: target of 2nd generation personalized vaccines
Description: All the putative 8-20 amino acids long epitopes were created from these proteins and used for designing the 2nd generation of personalized vaccines according to the invention. […] These antigens have different length and amino acid sequences. All selected peptide antigen contains multiple highly ranked epitopes (13-66) presented on the cell surface by the patient's HLA class I and class II molecules. The range of the potency score is indicated for the selected epitopes. Epitopes presented by the patient's HLA class I and class II molecules are indicated to induce CD8 and CD4 responses, respectively. As described in the invention, the potency of each epitope in the vaccines was calculated and indicated to inform the physician about the predicted efficacy of the personalised vaccines in the recipient.

[4] = ABF cohort individual AP0201, Hospitalized
[5] = ABF cohort individual BC10, Healthy
[6] = Subject 1327414, cohort Healthy
[7] = Subject 1005699, cohort COVID-19-Acute

APHGVVFLHV [SARS-COV-2 peptide of the ABF cohort data]
LFC (CD8^+ T-cells; [4]): 0

AADLDDFSKQL [SARS-COV-2 peptide of the ABF cohort data]
LFC (CD8^+ T-cells; [5]): 0

APFLYLYAL [SARS-COV-2 peptide of the ABF cohort data]
LFC (CD8^+ T-cells; [4]): 0

TLPPAWQPFLKDHRISTFKN [BIRC5 long-peptide personal vaccine of the breast cancer patient]
ELISpot [1]: 71 Spots/10^6 PBMC

ALLADKFPVL [SARS-COV-2 peptide of the ABF cohort data]
LFC (CD8^+ T-cells; [4]): 0
LFC (CD8^+ T-cells; [5]): 0

APKEIIFL [SARS-COV-2 peptide of the ABF cohort data]
LFC (CD8^+ T-cells; [5]): 0

ALNTLVKQL
Hits [2, 6]: 1

FTSSRMSSFNRHMKTHTSEK [CTCFL long-peptide personal vaccine of the breast cancer patient]
ELISpot [1]: 48 Spots/10^6 PBMC

RLDQLLRHVMNPLETLSITN [PRAME long-peptide personal vaccine of the breast cancer patient]
ELISpot [1]: 66 Spots/10^6 PBMC

NEQDLVREEAQKMSSLLPTM [SPAG9 long-peptide personal vaccine of the breast cancer patient]
ELISpot [1]: 0 Spots/10^6 PBMC

VVFLHVTYV
Hits [2, 7]: 1
Hits [2, 6]: 8

SGSSYFVLANGHILPNSENA [FMRINB long-peptide personal vaccine of the breast cancer patient]
ELISpot [1]: 130 Spots/10^6 PBMC

AHAEETRKL [SARS-COV-2 peptide of the ABF cohort data]
LFC (CD8^+ T-cells; [4]): 0

VASQSIIAY
Hits [2, 7]: 23
Hits [2, 6]: 4

DLFMRIFTI
Hits [2, 7]: 1

ALTCFSTQF [SARS-COV-2 peptide of the ABF cohort data]
LFC (CD8^+ T-cells; [5]): 0

FCNDPFLGVY
Hits [2, 7]: 1

QEESFSPTAMDAIFGSLSDE [MAGEAA long-peptide personal vaccine of the breast cancer patient]
ELISpot [1]: 0 Spots/10^6 PBMC

AYILFTRFFYV
Hits [2, 7]: 3
Hits [2, 6]: 1

SVYADQVNIDYLMNRPQNLR [AKAP4 long-peptide personal vaccine of the breast cancer patient]
ELISpot [1]: 366 Spots/10^6 PBMC
T cell responses (ELISPOT) ([1]; breast cancer patient): 366 spots/million cells

ALQDAYYRA [SARS-COV-2 peptide of the ABF cohort data]
LFC (CD8^+ T-cells; [5]): 0

AMDEFIERY [SARS-COV-2 peptide of the ABF cohort data]
LFC (CD8^+ T-cells; [5]): 0

APHGVVFL [SARS-COV-2 peptide of the ABF cohort data]
LFC (CD8^+ T-cells; [4]): 0

NVFAFPFTIY
Hits [2, 6]: 19

Fluoresc-EEKEIIVIKDTEKKDQS-RRRRRRRR-SQFNVPMLY-NH2 (fluorescein-EEKEIIVIKDTEKKDQSRRRRRRRRSQFNVPMLY-NH2) [AKAP-4-specific Personalized Vaccine, AKAP-4-specific VERDI Vaccine]
cells taking up the vaccine (HeLa cells; HeLa cells): 45%
cellular uptake (intensity of fluorescence) compared to control (HeLa cells): significantly higher uptake

FEYVSQPFL
Hits [2, 7]: 1

ITLATCELY
Hits [2, 7]: 12
Hits [2, 6]: 1

ADLDDFSKQL [SARS-COV-2 peptide of the ABF cohort data]
LFC (CD8^+ T-cells; [4]): 0

IELSLIDFYL
Hits [2, 7]: 4

ANPKTPKYKF [SARS-COV-2 peptide of the ABF cohort data]
LFC (CD8^+ T-cells; [4]): 0

AIMTRCLAV
Hits [2, 6]: 1

SDTKDYFMSKTLGIGRLKRP [FSIP1 long-peptide personal vaccine of the breast cancer patient]
ELISpot [1]: 257 Spots/10^6 PBMC

Fluoresc-THVDIRTLEDLLMGTL-RRRRRRRR-RAHYNIVTF-NH2 (fluorescein-THVDIRTLEDLLMGTLRRRRRRRRRAHYNIVTF-NH2) [HPV-specific Personalized Vaccine, E7 (HPV16)-specific VERDI Vaccine]
more peptide accumulated in each cell compared to the control vaccines (median fluorescence intensity) (HeLa cells; HeLa cells): approximately 30%
cells taking up the vaccine (HeLa cells; HeLa cells): more than 50%
cells taking up the vaccine (HeLa cells; HeLa cells, listed as HPV-specific vaccine): 53%
cellular uptake (intensity of fluorescence) compared to control (HeLa cells): significantly higher uptake

SVLLFLAFV
Hits [2, 6]: 5

ALLAVFQSA [SARS-COV-2 peptide of the ABF cohort data]
LFC (CD8^+ T-cells; [5]): 0

FAYANRNRF
Hits [2, 7]: 1

APISAMVRM [SARS-COV-2 peptide of the ABF cohort data]
LFC (CD8^+ T-cells; [5]): 0

ALVYFLQSI [SARS-COV-2 peptide of the ABF cohort data]
LFC (CD8^+ T-cells; [4]): 0

ALRKVPTDNY [SARS-COV-2 peptide of the ABF cohort data]
LFC (CD8^+ T-cells; [5]): 0

KEIIFLEGETL
Hits [2, 6]: 1

WT1
Relative expression [3]: 59

AFPFTIYSL [SARS-COV-2 peptide of the ABF cohort data]
LFC (CD8^+ T-cells; [4]): 0

ELIRQGTDY
Hits [2, 7]: 2

BLTP2
Relative expression [3]: 95

B1: SPAG9 (protein, UniProt O60271 1-1321, looked up)
C-Jun-amino-terminal …: MELEDGVVYQEEPGGSGAVMSERVSGLAGSIYREFERLIGRYDEEVVKELMPLVVAVLENLDSVFAQDQEHQVELELLRDDNEQLITQYEREKALRKHAEEKFIEFEDSQEQEKKDLQTRVESLESQTRQLELKAKNYADQISRLEEREAELKKEYNALHQRHTEMIHNYMEHLERTKLHQLSGSDQLESTAHSRIRKERPISLGIFPLPAGDGLLTPDAQKGGETPGSEQWKFQELSQPRSHTSLKVSNSPEPQKAVEQEDELSDVSQGGSKATTPASTANSDVATIPTDTPLKEENEGFVKVTDAPNKSEISKHIEVQVAQETRNVSTGSAENEEKSEVQAIIESTPELDMDKDLSGYKGSSTPTKGIENKAFDRNTESLFEELSSAGSGLIGDVDEGADLLGMGREVENLILENTQLLETKNALNIVKNDLIAKVDELTCEKDVLQGELEAVKQAKLKLEEKNRELEEELRKARAEAEDARQKAKDDDDSDIPTAQRKRFTRVEMARVLMERNQYKERLMELQEAVRWTEMIRASRENPAMQEKKRSSIWQFFSRLFSSSSNTTKKPEPPVNLKYNAPTSHVTPSVKKRSSTLSQLPGDKSKAFDFLSEETEASLASRREQKREQYRQVKAHVQKEDGRVQAFGWSLPQKYKQVTNGQGENKMKNLPVPVYLRPLDEKDTSMKLWCAVGVNLSGGKTRDGGSVVGASVFYKDVAGLDTEGSKQRSASQSSLDKLDQELKEQQKELKNQEELSSLVWICTSTHSATKVLIIDAVQPGNILDSFTVCNSHVLCIASVPGARETDYPAGEDLSESGQVDKASLCGSMTSNSSAETDSLLGGITVVGCSAEGVTGAATSPSTNGASPVMDKPPEMEAENSEVDENVPTAEEATEATEGNAGSAEDTVDISQTGVYTEHVFTDPLGVQIPEDLSPVYQSSNDSDAYKDQISVLPNEQDLVREEAQKMSSLLPTMWLGAQNGCLYVHSSVAQWRKCLHSIKLKDSILSIVHVKGIVLVALADGTLAIFHRGVDGQWDLSNYHLLDLGRPHHSIRCMTVVHDKVWCGYRNKIYVVQPKAMKIEKSFDAHPRKESQVRQLAWVGDGVWVSIRLDSTLRLYHAHTYQHLQDVDIEPYVSKMLGTGKLGFSFVRITALMVSCNRLWVGTGNGVIISIPLTETNKTSGVPGNRPGSVIRVYGDENSDKVTPGTFIPYCSMAHAQLCFHGHRDAVKFFVAVPGQVISPQSSSSGTDLTGDKAGPSAQEPGSQTPLKSMLVISGGEGYIDFRMGDEGGESELLGEDLPLEPSVTKAERSHLIVWQVMYGNE
Relative expression [3]: 70

B2: ODF2 (protein, UniProt Q5BJF6 1-829, looked up)
Outer dense fiber protein 2: MSASSSGGSPRFPSCGKNGVTSLTQKKVLRAPCGAPSVTVTKSHKRGMKGDTVNVRRSVRVKTKVPWMPPGKSSARPVGCKWENPPHCLEITPPSSEKLVSVMRLSDLSTEDDDSGHCKMNRYDKKIDSLMNAVGCLKSEVKMQKGERQMAKRFLEERKEELEEVAHELAETEHENTVLRHNIERMKEEKDFTILQKKHLQQEKECLMSKLVEAEMDGAAAAKQVMALKDTIGKLKTEKQMTCTDINTLTRQKELLLQKLSTFEETNRTLRDLLREQHCKEDSERLMEQQGALLKRLAEADSEKARLLLLLQDKDKEVEELLQEIQCEKAQAKTASELSKSMESMRGHLQAQLRSKEAENSRLCMQIKNLERSGNQHKAEVEAIMEQLKELKQKGDRDKESLKKAIRAQKERAEKSEEYAEQLHVQLADKDLYVAEALSTLESWRSRYNQVVKEKGDLELEIIVLNDRVTDLVNQQQTLEEKMREDRDSLVERLHRQTAEYSAFKLENERLKASFAPMEDKLNQAHLEVQQLKASVKNYEGMIDNYKSQVMKTRLEADEVAAQLERCDKENKILKDEMNKEIEAARRQFQSQLADLQQLPDILKITEAKLAECQDQLQGYERKNIDLTAIISDLRSRIEHQGDKLEMAREKHQASQKENKQLSLKVDELERKLEATSAQNIEFLQVIAKREEAIHQSQLRLEEKTRECGTLARQLESAIEDARRQVEQTKEHALSKERAAQNKILDLETQLSRTKTELSQLRRSRDDADRRYQSRLQDLKDRLEQSESTNRSMQNYVQFLKSSYANVFGDGPYSTFLTSSPIRSRSPPA
Relative expression [3]: 19

— patent US20260188423A1, “IDENTIFICATION OF CELL SURFACE ANTIGENS WHICH INDUCE T-CELL RESPONSES AND THEIR USES” (priority 2022, published 2026)
